Experimental data: patent publication US20180273531A1, “PYRIMIDINE COMPOUND AND MEDICAL USE THEREOF” (Japan Tobacco Inc., priority 2004, published 2018)
pIC50: −log10 of the molar value.

Experiments:
Type in all cases: cell-based
p27 protein = p27 protein induction test (Western blotting); settings: test substance (0.1 1M), 24 hrs, ACHN cells or HT-29 cells, compared to DMSO, n=2
Description: ACHN cells or HT-29 cells were cultured in a 6 well plate at 2.5×10^5 cells/1.8 mL/well for 24 hrs, a test substance ([…]) dissolved in DMSO was added. After 24 hrs, cells were detached using trypsin-EDTA (ethylene diamine tetraacetic acid) and solubilized with NuPAGE LDS sample buffer (Invitrogen). Using an RC DC protein assay kit (BIO-RAD), the protein concentration of the sample was quantitated, and a sample in an amount corresponding to 10 μg of BSA (bovine serum albumin) was analyzed by Western blotting using an anti-p27 antibody. The density of the band stained with the anti-p27 antibody was measured by a densitometer to quantify the amount of p27 protein. As a control, DMSO was used and the test was performed with n=2 and the average protein amount was determined.

[1] = tested on: Renal cancer cell line ACHN cell; experiment: Growth inhibitory effect against cancer cell lines (3H-thymidine uptake), ACHN
Description: Renal cancer cell line ACHN cell or colorectal cancer cell line HT-29 cells were cultured in a 96 well plate at 1.0×10^4 cells/90 μL/well for 24 hrs, then a test substance dissolved in DMSO (dimethyl sulfoxide) was added. After 18 hrs, ^3H-thymidine (0.25 μCi/well) was added and the cells were cultured for 6 hrs. Using a cell harvester, the cells were recovered on a UniFilter-96 GF/B glass filter and the ^3H radioactivity uptaken by the cells was measured by TopCount (Packard). As a control, DMSO was used and the activity of the test substance was expressed in the concentration (IC50) necessary for inhibiting ^3H radioactivity uptaken by the cell to 50% of that of the control group. The measurements were made in triplicate.

[2] = tested on: colorectal cancer cell line HT-29 cells; experiment: Growth inhibitory effect against cancer cell lines (3H-thymidine uptake), HT-29; settings: test substance 18 hrs, then 3H-thymidine 6 hrs, triplicate
In short: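 IC50 = concentration reducing ^3H-thymidine incorporation to 50% of DMSO control, measured in triplicate. Compound added 24 hrs after plating (1.0×10^4 cells/well); label (0.25 μCi/well) given after 18 hrs of treatment, followed by 6 hrs further culture and scintillation counting of harvested cells.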

p15 protein = experiment: Evaluation of p15 induction activity (Western blotting); settings: test substance 0.1 μM, 24 hrs, ACHN cells or HT-29 cells, compared to DMSO, n=2
In short: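 p15 protein quantified by densitometry of anti-p15 Western blots (10 μg protein per lane, mean of n=2). Samples came from HT-29 or ACHN cells given 0.1 μM compound for 24 h after 24 h plating, with DMSO as control.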

[3] = Homo sapiens, HT-29, inhibition of 3H-thymidine uptake

Compound	fold induction at 0.1 µM (p27 protein)	pIC50 ([1]; Homo sapiens, ACHN)	pIC50 [2, 3]	fold induction at 0.1 µM (p15 protein)	pIC50 ([1]; inhibition of 3H-thymidine uptake, test substance 18 hrs, then 3H-thymidine 6 hrs, triplicate)	Induction of p15 protein (p15 protein)	pIC50 ([2]; inhibition of 3H-thymidine uptake)
CC(=O)Nc1cc(-n2c(=O)n(C3CC3)c(=O)c3c(Nc4ccc(I)cc4F)n(C)c(=O)c(C)c32)ccc1F [Example 4-99]	≥ 1.5	6.00 to 7.00	> 8.00				
C#Cc1ccc(Nc2cc(=O)n(C)c3c2c(=O)n(C2CC2)c(=O)n3-c2cccc(NS(C)(=O)=O)c2)c(F)c1 [Example 1-260]	≥ 1.5	> 8.00	> 8.00				
CCc1ccc(Nc2cc(=O)n(C)c3c2c(=O)n(C2CC2)c(=O)n3-c2cccc(NS(C)(=O)=O)c2)c(F)c1 [Example 1-275]	≥ 1.5	7.00 to 8.00	> 8.00				
CN(C)S(=O)(=O)Nc1cccc(-n2c(=O)n(C3CC3)c(=O)c3c(Nc4ccc(Br)cc4F)cc(=O)n(C)c32)c1 [Example 1-309]	≥ 1.5	7.00 to 8.00	> 8.00				
CN(C)c1ccc(Nc2cc(=O)n(C)c3c2c(=O)n(C2CC2)c(=O)n3-c2ccccc2)c(F)c1 [Example 1-192]		6.00 to 7.00	7.00 to 8.00	≥ 1.5			
C#Cc1ccc(Nc2cc(=O)n(C)c3c2c(=O)n(C2CC2)c(=O)n3-c2cccc(S(C)(=O)=O)c2)c(F)c1 [Example 1-259]	≥ 1.5	6.00 to 7.00	> 8.00				
Cn1c(=O)cc(Nc2ccc(Br)cc2F)c2c(=O)n(C3CC3)c(=O)n(-c3cccc(N4CCOCC4)c3)c21 [Example 1-193]		6.00 to 7.00	> 8.00	≥ 1.5			
COc1cccc(-n2c(=O)n(C3CC3)c(=O)c3c(Nc4ccc(Br)cc4F)cc(=O)n(C)c32)c1 [Example 1-191]		6.00 to 7.00	7.00 to 8.00	≥ 1.5			
CCS(=O)(=O)Nc1cccc(-n2c(=O)n(C3CC3)c(=O)c3c(Nc4ccc(I)cc4F)cc(=O)n(C)c32)c1 [Example 1-274]	≥ 1.5	> 8.00	> 8.00				
COc1ccc(Nc2cc(=O)n(C)c3c2c(=O)n(C2CC2)c(=O)n3-c2ccccc2)c(F)c1 [Example 1-175]	≥ 1.5		6.00 to 7.00	≥ 1.5			
Cc1c(=O)n(C)c(Nc2ccc(I)cc2F)c2c(=O)n(C3CC3)c(=O)n(-c3ccc4c(c3)ncn4C)c12 [Example 4-111]		6.00 to 7.00	7.00 to 8.00	≥ 1.5			
CCS(=O)(=O)Nc1cccc(-n2c(=O)n(C3CC3)c(=O)c3c(Nc4ccc(Br)cc4F)n(C)c(=O)c(C)c32)c1 [Example 3-5]	≥ 1.5	7.00 to 8.00	> 8.00				
Cn1c(=O)cc(Nc2ccc(Br)cc2F)c2c(=O)n(C3CC3)c(=O)n(-c3cccc(NC(=O)CO)c3)c21 [Example 1-263]	≥ 1.5	6.00 to 7.00	> 8.00				
CN(c1cccc(-n2c(=O)n(C3CC3)c(=O)c3c(Nc4ccc(Br)cc4F)cc(=O)n(C)c32)c1)S(C)(=O)=O [Example 1-228]	≥ 1.5	6.00 to 7.00	7.00 to 8.00				
C#Cc1ccc(Nc2cc(=O)n(C)c3c2c(=O)n(C2CC2)c(=O)n3-c2cccc(NS(=O)(=O)C(C)C)c2)c(F)c1 [Example 1-321]		7.00 to 8.00	> 8.00	≥ 1.5			
CCCCC(=O)NCCC(=O)Nc1cccc(-n2c(=O)n(C3CC3)c(=O)c3c(Nc4ccc(Br)cc4F)cc(=O)n(C)c32)c1 [Example 1-299]	≥ 1.5	6.00 to 7.00	7.00 to 8.00				
CC(C)N1CCC(Nc2cc(=O)n(C)c3c2c(=O)n(C2CC2)c(=O)n3-c2ccccc2)CC1 [Example 1-182]	≥ 1.5						

Compound	fold induction at 0.1 µM (p27 protein)	pIC50 ([1]; Homo sapiens, ACHN)	pIC50 [2, 3]	fold induction at 0.1 µM (p15 protein)	pIC50 ([1]; inhibition of 3H-thymidine uptake, test substance 18 hrs, then 3H-thymidine 6 hrs, triplicate)	Induction of p15 protein (p15 protein)	pIC50 ([2]; inhibition of 3H-thymidine uptake)
Cc1c(=O)n(C)c(Nc2ccc(I)cc2F)c2c(=O)n(C3CC3)c(=O)n(-c3ccc4c(c3)ncn4C)c12 [Example 4-112]					6.00 to 7.00	+ (As compared to DMSO, not less than 1.5-fold induction of p15 protein)	> 8.00
Cn1c(=O)cc(Nc2ccc(Br)cc2F)c2c(=O)n(C3CC3)c(=O)n(-c3cccc(O)c3)c21 [Example 1-213]		6.00 to 7.00	7.00 to 8.00	≥ 1.5			
COc1ccc(-n2c(=O)n(C3CC3)c(=O)c3c(Nc4ccc(Br)cc4F)cc(=O)n(C)c32)cc1 [Example 1-186]	≥ 1.5		7.00 to 8.00	≥ 1.5			
Cc1cc(N(C)C)ccc1Nc1cc(=O)n(C)c2c1c(=O)n(C1CC1)c(=O)n2-c1ccccc1F [Example 1-142]	≥ 1.5		6.00 to 7.00	≥ 1.5			
CN(C)CCOc1cccc(-n2c(=O)n(C3CC3)c(=O)c3c(Nc4ccc(Br)cc4F)cc(=O)n(C)c32)c1 [Example 1-218]	≥ 1.5		7.00 to 8.00	≥ 1.5			
Cc1ccccc1-n1c(=O)n(C2CC2)c(=O)c2c(Nc3ccc(N(C)C)cc3)cc(=O)n(C)c21 [Example 1-106]		6.00 to 7.00	6.00 to 7.00	≥ 1.5			
CN(C)CC#Cc1ccc(Nc2cc(=O)n(C)c3c2c(=O)n(C2CC2)c(=O)n3-c2ccccc2)c(F)c1 [Example 1-246]		6.00 to 7.00	7.00 to 8.00	≥ 1.5			
Cn1c(=O)cc(Nc2ccc(Br)cc2Cl)c2c(=O)n(C3CC3)c(=O)n(-c3ccccc3)c21 [Example 1-176]		6.00 to 7.00	7.00 to 8.00	≥ 1.5			
CN(C)c1cccc(-n2c(=O)n(C3CC3)c(=O)c3c(Nc4ccc(Br)cc4F)cc(=O)n(C)c32)c1 [Example 1-199]		6.00 to 7.00	7.00 to 8.00	≥ 1.5			
Cn1c(=O)cc(Nc2ccc(Br)cc2F)c2c(=O)n(C3CC3)c(=O)n(-c3cccc(N4CCCC4=O)c3)c21 [Example 1-212]		6.00 to 7.00	> 8.00	≥ 1.5			
Cn1c(=O)c2c(Nc3ccc(Br)cc3Cl)cc(=O)n(C)c2n(-c2ccccc2)c1=O [Example 1-200]		6.00 to 7.00	7.00 to 8.00	≥ 1.5			
CN(C)c1ccc(Nc2cc(=O)n(C)c3c2c(=O)n(C2CC2)c(=O)n3-c2cccc(N3CCOCC3)c2)c(F)c1 [Example 1-205]		6.00 to 7.00	> 8.00	≥ 1.5			
Cc1c(Nc2ccc(Br)cc2F)c2c(=O)n(C3CC3)c(=O)n(-c3cccc(NS(C)(=O)=O)c3)c2n(C)c1=O [Example 1-333]		7.00 to 8.00	> 8.00	≥ 1.5			
C#Cc1ccc(Nc2cc(=O)n(C)c3c2c(=O)n(C2CC2)c(=O)n3-c2ccccc2)c(F)c1 [Example 1-208]		7.00 to 8.00	> 8.00	≥ 1.5			
Cn1c(=O)cc(Nc2ccc(Br)cc2)c2c(=O)n(C3CC3)c(=O)n(-c3ccccc3F)c21 [Example 1-113]		6.00 to 7.00	6.00 to 7.00	≥ 1.5			
Cn1c(=O)cc(Nc2ccc(Br)cc2F)c2c(=O)n(C3CC3)c(=O)n(-c3ccc(O)cc3)c21 [Example 1-188]		6.00 to 7.00	7.00 to 8.00	≥ 1.5			
